Experimental data as given in publication PMC9273935, “Cooperative Binding of Substrate and Ions Drives Forward Cycling of the Human Creatine Transporter-1” (Frontiers in Physiology, 2022).

Columns and labels:
[1] = target: T1, human creatine transporter-1 (CRT-1, SLC6A8), C-terminally YFP-tagged (Homo sapiens, UniProt P48029); assay: whole-cell patch clamp, substrate-induced transport current in transfected HEK293 cells; type: cell-based
T1 construct: full-length cDNA in pEYFP-N1, C-terminal YFP tag, transiently expressed in HEK293 cells; oligomeric state not known
T1 sequence (P48029 1-635): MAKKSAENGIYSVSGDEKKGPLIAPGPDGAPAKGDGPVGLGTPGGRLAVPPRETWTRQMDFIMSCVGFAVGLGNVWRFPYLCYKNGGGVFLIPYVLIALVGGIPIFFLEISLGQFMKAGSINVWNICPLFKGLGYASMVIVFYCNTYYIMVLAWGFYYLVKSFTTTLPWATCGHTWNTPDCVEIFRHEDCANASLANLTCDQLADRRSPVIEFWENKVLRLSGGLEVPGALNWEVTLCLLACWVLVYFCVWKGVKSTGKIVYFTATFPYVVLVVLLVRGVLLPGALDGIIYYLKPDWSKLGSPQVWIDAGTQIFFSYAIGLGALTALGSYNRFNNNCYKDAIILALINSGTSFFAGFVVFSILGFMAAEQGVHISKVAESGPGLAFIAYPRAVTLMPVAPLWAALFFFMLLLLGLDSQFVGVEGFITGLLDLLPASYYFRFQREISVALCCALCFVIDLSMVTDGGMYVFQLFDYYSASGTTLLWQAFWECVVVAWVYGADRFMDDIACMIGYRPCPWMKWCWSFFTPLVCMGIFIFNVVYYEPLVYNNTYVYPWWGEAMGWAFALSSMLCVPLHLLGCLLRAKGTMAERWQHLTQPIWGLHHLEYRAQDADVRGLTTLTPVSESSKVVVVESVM

[2] = target: T1, human creatine transporter-1 (CRT-1, SLC6A8), C-terminally YFP-tagged; assay: inhibition of [3H]creatine uptake in transfected HEK293 cells; type: cell-based

Compound	EC50 [1] [µM]	IC50 [2] [µM]
NC1=NCC(C(=O)O)CN1 (centres unmarked) [ATPCA, 2-amino-1,4,5,6-tetrahydropyrimidine-5-carboxylic acid]	103 ± 4	105 ± 6.7
CN(CC(=O)O)C(=N)N [creatine]	34.8 ± 1.9	48.4 ± 7
NC1=NCCN1CC(=O)O [cyclocreatine]	162 ± 8.49	167 ± 9.9
N=C(N)NCCC(=O)O [β-guanidinopropionic acid]	13.2 ± 0.73	18.8 ± 1.1
